Assay results published in patent US6417174B1, “Inhibitors of β-lactamases and uses therefor” (Northwestern University, priority 1997, dated 2002).
Read-outs that look alike come from different tables or passages of the source.

Legend:
[1] = biological target: AmpC β-lactamase from E. coli (Escherichia coli, UniProt P00811); test: biochemical; type: biochemical
[2] = biological target: T1, TEM-1 β-lactamase from E. coli (Escherichia coli, UniProt P62593); test: Inhibition of TEM-1 β-lactamase, spectrophotometric assay (FAP substrate); type: biochemical
T1 construct: gift: Natalie Strynadka, University of Alberta

[3] = tested on: β-lactamase derepressed strain of Enterobacter cloacae (Ent-Der); test: microbe, parasite or virus in culture; type: cell-based; settings: for MIC of ceftazidime plus inhibitor: Table 3A, proportion 4/1, given as CAZ/inhibitor; for MIC of ceftazidime plus inhibitor / MIC of inhibitor used alone without ceftazidime: Ent. Der.; for MIC of inhibitor used alone without ceftazidime: Table 3B; as to MIC of ceftazidime plus inhibitor: values in µg/ml
Method: (§1) After incubation, the growth of the cells was visually inspected. The minimum inhibitory concentration (MIC) is the lowest concentration where there no cell growth was observed.
(§2) The following strains were used: Enterobacter cloacae cell line with derepressed β-lactamase production (Ent-Der), and Escherichia coli RYC1000 (araD139 D lacU169 rpsL D rib7 thiA gyrA recA56) cell lines, harboring the plasmid pBGS19 (with no β-lactamase), or the β-lactamase containing plasmids pBGAmpC (AmpC β-lactamase from E. coli; Eco-AmpC), or pBGAmpC-MHN (AmpC β-lactamase from Enterobacter cloacae; Eco-AmpCEnt). […] TEM-10 and TEM-24 differ from TEM-1 due to the following point substitutions: TEM-10 (R164S, E240K); TEM-24 (L102K, L162S, S235T, A237K). TEM-10 and TEM-24 also differ from TEM-1 in being extended spectrum enzymes (i.e., they react with a greater range of substrates than TEM-1). Also tested were clinical isolates of Pseudomonas aeruginosa. All bacterial strains and plasmids are available from Jesus Blazquez and Fernando Baquero, Servicio de Microbiologia, Hospital Ramon y Cajal, National Institute of Health, Madrid, Spain.
(§3) Several ratios, including 1:1, 2:1, 4:1, and 1:3, of β-lactam antibiotic (amoxicillin (AX) or ceftazidime (CAZ)) to boronic acid compound were used in the assays. Tazobactam (TAZO), a clinically used β-lactamase inibitor, was used as a positive control.

[4] = tested on: E. coli RYC1000 harboring plasmid pBGAmpC-MHN (AmpC β-lactamase of Enterobacter cloacae); test: microbe, parasite or virus in culture; type: cell-based, Escherichia coli; settings: for MIC of ceftazidime plus inhibitor: Table 3A, proportion 4/1, given as CAZ/inhibitor; for MIC of ceftazidime plus inhibitor / MIC of inhibitor used alone without ceftazidime: AmpC-MHN; for MIC of inhibitor used alone without ceftazidime: Table 3B; as to MIC of ceftazidime plus inhibitor: values in µg/ml
Method: as §1, §2, §3

[5] = tested on: E. coli RYC1000 harboring plasmid pBGS19 (no β-lactamase); test: microbe, parasite or virus in culture; type: cell-based, Escherichia coli; settings: for MIC of ceftazidime plus inhibitor: Table 3A, proportion 4/1; for MIC of ceftazidime plus inhibitor / MIC of inhibitor used alone without ceftazidime: pBGS19; for MIC of inhibitor used alone without ceftazidime: Table 3B
Method: as §1, §2, §3

[6] = tested on: E. coli RYC1000 harboring plasmid pBGTEM-24 (TEM-24 β-lactamase); test: microbe, parasite or virus in culture; type: cell-based, Escherichia coli; settings: for MIC of ceftazidime plus inhibitor: Table 3A, proportion 4/1, given as CAZ/inhibitor; for MIC of inhibitor used alone without ceftazidime: Table 3B; as to MIC of ceftazidime plus inhibitor: values in µg/ml
Method: as §1, §2, §3

[7] = tested on: E. coli RYC1000 harboring pBGAmpC-E. coli producing AmpC (ECR-AmpCEc); test: microbe, parasite or virus in culture; type: cell-based, Escherichia coli
Method: as §1, §2, §3

[8] = tested on: E. coli RYC1000 harboring pBGTEM-1 producing TEM-1 β-lactamase (EC-T1); test: microbe, parasite or virus in culture; type: cell-based, Escherichia coli
Method: as §1, §2, §3

[9] = tested on: E. coli RYC1000 harboring pBGTEM-10 producing TEM-10 β-lactamase (EC-T10); test: microbe, parasite or virus in culture; type: cell-based, Escherichia coli
Method: as §1, §2, §3

[10] = tested on: E. coli RYC1000 harboring a plasmid coding for a mutant of AmpC from Enterobacter (ECR-AmpCEnM); test: microbe, parasite or virus in culture; type: cell-based, Escherichia coli
Method: as §1, §2, §3

[11] = Table 5, as described in Example 2, read-out: Ki AmpC
[12] = Tables 2A/2B, pH 7.0, 25° C., 100 μM cephalothin, read-out: Ki E. coli AmpC
[13] = Tables 2A/2B, pH 7.0, 25° C., 100 μM FAP, N.I. = no inhibition observed at an inhibitor concentration of 100 μM, read-out: Ki E. coli TEM-1
[14] = pH 7, read-out: Ki E. coli AmpC
[15] = Enterobacter cloacae, read-out: MIC of amoxicillin (AX)
[16] = Escherichia coli, read-out: MIC of amoxicillin (AX)

Sequence of AmpC β-lactamase from E. coli (P00811 20-377): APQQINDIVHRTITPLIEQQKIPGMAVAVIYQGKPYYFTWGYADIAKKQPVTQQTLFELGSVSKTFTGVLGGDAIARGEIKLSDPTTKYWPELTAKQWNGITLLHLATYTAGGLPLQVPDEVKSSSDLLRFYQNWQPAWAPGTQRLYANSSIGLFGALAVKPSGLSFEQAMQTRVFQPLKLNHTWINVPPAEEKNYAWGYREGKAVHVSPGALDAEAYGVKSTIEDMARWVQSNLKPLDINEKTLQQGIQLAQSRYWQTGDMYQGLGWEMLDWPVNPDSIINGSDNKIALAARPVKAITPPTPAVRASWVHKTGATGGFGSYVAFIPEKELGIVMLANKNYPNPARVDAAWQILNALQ
T1 sequence (P62593 24-286 limits assumed): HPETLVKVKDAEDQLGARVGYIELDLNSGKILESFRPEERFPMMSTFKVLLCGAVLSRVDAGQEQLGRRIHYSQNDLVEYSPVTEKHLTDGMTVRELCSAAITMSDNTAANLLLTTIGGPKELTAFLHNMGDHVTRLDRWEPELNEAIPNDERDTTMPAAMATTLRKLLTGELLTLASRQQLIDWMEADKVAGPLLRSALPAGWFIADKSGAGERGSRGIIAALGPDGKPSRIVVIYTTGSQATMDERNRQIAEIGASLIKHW

OB(O)c1ccc2c(c1)OCO2
Ki [1, 11]: 53.4 ± 6.1 µM

OB(O)c1ccc2[nH]ccc2c1
Ki [1, 11]: 10.9 ± 0.6 µM

O=C(O)/C=C/c1cccc(B(O)O)c1
Ki [1, 11]: 5.9 ± 0.3 µM

O=C(O)/C=C/c1ccc(B(O)O)cc1
Ki [1, 11]: 4.2 ± 1.1 µM

Cc1csc(B(O)O)c1
Ki [1, 11]: 0.5 ± 0.05 µM

OB(O)c1csc2ccccc12
Ki ([1]; read-out: Ki AmpC): 0.78 ± 0.08 µM

O=C1OC(=O)c2ccccc2/C1=N/Nc1cccc(B(O)O)c1
Ki [1, 11]: 0.075 µM

CN1C(=O)/C(=N\Nc2cccc(B(O)O)c2)c2ccccc2C1=O
Ki [1, 11]: 0.075 µM

OB(O)c1ccc2ccccc2c1 [2-naphthylboronic acid]
Ki ([1]; Example 1, read-out: Ki for AmpC): 8.5 ± 1.8 µM

OB(O)c1ccccc1 [2FDB, phenylboronic acid, reference compound]
Ki [1, 12]: 8 µM | Ki [2]: > 100 µM

O=Cc1ccccc1B(O)O [2FORMB, 2-formylphenylboronate, reference compound]
Ki [1, 12]: 62 µM | Ki [2, 13]: > 100 µM

O=Cc1ccsc1B(O)O [3FTH2B, 3-formylthiophene-2-boronic acid]
Ki [1, 12]: 3.5 µM | Ki E. coli TEM-1 ([2]; Tables 2A/2B, pH 7.0, 25° C., 100 μM FAP, N.I. = no inhibition observed at an inhibitor concentration of 100 μM): N.I.

OB(O)c1cccc(C(F)(F)F)c1 [3TFMB]
Ki values (AmpC), range in words [1]: one to two | Ki [1, 14]: 1.6 µM | Ki [2, 13]: 85 µM

Oc1ccc(N=Nc2ccc(Br)cc2)cc1B1OB(c2cc(N=Nc3ccc(Br)cc3)ccc2O)OB(c2cc(N=Nc3ccc(Br)cc3)ccc2O)O1 [4BPAPB, 2,4,6-tris(β-(4-bromophenylazo)-2-hydroxyphenyl) boroxin]
MIC of ceftazidime plus inhibitor [3]: 512/128 | MIC of inhibitor used alone without ceftazidime [3]: >512 µg/mL | Ki [1, 14]: 7.2 µM | MIC of ceftazidime plus inhibitor [4]: 8/2 | MIC of inhibitor used alone without ceftazidime [4]: 256 µg/mL | MIC of ceftazidime plus inhibitor [5]: <0.25 µg/mL | MIC of inhibitor used alone without ceftazidime [5]: 128 µg/mL | MIC of ceftazidime plus inhibitor [6]: 256/64 | MIC of inhibitor used alone without ceftazidime [6]: 256 µg/mL | Ki [2, 13]: 1.2 µM

OB(O)c1ccc(Br)cc1 [4BPB, 4-bromophenylboronic acid]
Ki ([1]; Ki E. coli AmpC): 2.6 µM | Ki [2]: 31.3 µM

O=Cc1ccc(B(O)O)cc1 [4FORMB, 4-formylphenylboronate, reference compound]
Ki [1, 12]: 2.8 µM | Ki [2, 13]: 35 µM

Cc1ccc(B(O)O)cc1 [4MEPB, 4-methylphenylboronate, reference compound]
Ki [1, 14]: 5.2 µM | Ki [2, 13]: > 100 µM

OB(O)c1ccc(C(F)(F)F)cc1 [4TFMB]
Ki [1, 14]: 9 µM | Ki [2, 13]: 6.3 µM

CC(=O)c1ccc(B(O)O)s1 [5ACTH2B, 5-acetylthiophene-2-boronic acid]
Ki [1, 12]: 1.8 µM | Ki [2]: > 50 µM

OB(O)c1ccc(Cl)s1 [5CLTH2B, 5-chlorothiophene-2-boronic acid]
MIC of ceftazidime plus inhibitor [3]: 32/8 | MIC of inhibitor used alone without ceftazidime [3]: 128 µg/mL | Ki [1, 12]: 1.4 µM | MIC of ceftazidime plus inhibitor [4]: 4/1 | MIC of inhibitor used alone without ceftazidime [4]: 128 µg/mL | MIC of ceftazidime plus inhibitor [5]: <0.25 µg/mL | MIC of inhibitor used alone without ceftazidime [5]: 128 µg/mL | MIC of ceftazidime plus inhibitor [6]: 128/32 | MIC of inhibitor used alone without ceftazidime [6]: 128 µg/mL | Ki [2]: 17 µM

OB(O)[C@@H]1CCOC1 [(R)-3-tetrahydrofuranyl-boronic acid]
Ki ([1]; read-out: Ki for AmpC): 1.4 ± 0.1 µM

OB(O)[C@H]1CCOC1 [(S)-3-tetrahydrofuranylboronic acid]
Ki ([1]; read-out: Ki for AmpC): 15.8 ± 0.8 µM

CC1(C)S[C@@H]2[C@H](NC(=O)[C@H](N)c3ccc(O)cc3)C(=O)N2[C@H]1C(=O)O [AX, amoxicillin, reference compound]
MIC [3, 15]: > 2050 µg/mL | MIC [7, 16]: > 2050 µg/mL | MIC [4, 15]: > 2050 µg/mL | MIC [8, 16]: > 2050 µg/mL | MIC [9, 16]: > 2050 µg/mL | MIC ([10]; Enterobacter, read-out: MIC of amoxicillin (AX)): > 2050 µg/mL

OB(O)c1ccc(B(O)O)cc1 [B14DA]
Ki [1, 14]: 6.9 µM | Ki [2, 13]: 40 µM

CCCCB(O)O [BUTB, Butylboronic acid]
Ki [1, 12]: > 500 µM | Ki [2]: > 100 µM

OB(O)c1cc2ccccc2o1 [BZBF2B, benzo[b]furan-2-boronic acid]
activity relative to furan-2-boronic acid parent (AmpC) [1]: about 1000 fold | Ki ([1]; Ki E. coli AmpC): 0.07 µM | Ki [2]: 8 µM

OB(c1ccccc1)c1ccccc1 [DFB, diphenylboronic acid]
inhibition of AmpC (in words) [1]: lacks measurable inhibition | Ki [1, 12]: > 500 µM | Ki [2, 13]: > 100 µM

OB(O)c1cc(N=Nc2cccc(C(F)(F)F)c2)ccc1O [HFAB, 2-hydroxy-5-(3-(trifluoromethyl)phenylazo) benzeneboronic acid]
Ki [1, 12]: 1.3 µM

OB(O)c1cccc2ccccc12 [NAPB]
Ki [1, 12]: 10.4 µM | dissociation constant relative to MAPB (AmpC) ([1]; compared with MAPB): two to three-fold worse (higher) | Ki [2, 13]: 34 µM

C[C@]1(Cn2ccnn2)[C@H](C(=O)O)N2C(=O)C[C@H]2S1(=O)=O [TAZO, Tazobactam, reference compound]
MIC of ceftazidime plus inhibitor [3]: 32/8 | MIC of amoxicillin plus inhibitor ([3]; Table 4A, Ent-Der., proportion 4/1): 128 µg/mL | MIC of inhibitor used alone without amoxicillin ([3]; Table 4B, Ent-Der., not tested above 128 μg/ml, “256” indicates no inhibition of cell growth): 256 µg/mL | MIC of amoxicillin plus inhibitor ([7]; Table 4A, ECR-AmpCEc, proportion 4/1): 32 µg/mL | MIC of inhibitor used alone without amoxicillin ([7]; Table 4B, ECR-AmpCEc, not tested above 128 μg/ml, “256” indicates no inhibition of cell growth): 64 µg/mL | MIC of ceftazidime plus inhibitor [4]: 4/1 | MIC of amoxicillin plus inhibitor ([4]; Table 4A, EC-AmpCEn, proportion 4/1): 16 µg/mL | MIC of inhibitor used alone without amoxicillin ([4]; Table 4B, ECAmpCEn, not tested above 128 μg/ml, “256” indicates no inhibition of cell growth): 64 µg/mL | MIC of ceftazidime plus inhibitor [5]: <0.25 µg/mL | MIC of inhibitor used alone without amoxicillin ([5]; Table 4B, EC, not tested above 128 μg/ml, “256” indicates no inhibition of cell growth): 32 µg/mL | MIC of amoxicillin plus inhibitor ([8]; Table 4A, EC-T1, proportion 4/1): 8 µg/mL | MIC of inhibitor used alone without amoxicillin ([8]; Table 4B, EC-T1, not tested above 128 μg/ml, “256” indicates no inhibition of cell growth): 32 µg/mL | MIC of amoxicillin plus inhibitor ([9]; Table 4A, EC-T10, proportion 4/1): 4 µg/mL | MIC of inhibitor used alone without amoxicillin ([9]; Table 4B, EC-T10, not tested above 128 μg/ml, “256” indicates no inhibition of cell growth): 64 µg/mL | MIC of amoxicillin plus inhibitor ([10]; Table 4A, ECR-AmpCEnM, proportion 4/1): 16 µg/mL | MIC of inhibitor used alone without amoxicillin ([10]; Table 4B, ECRAmpCEnM, not tested above 128 μg/ml, “256” indicates no inhibition of cell growth): 64 µg/mL | MIC of ceftazidime plus inhibitor [6]: 8/2

OB(O)c1ccsc1 [TH3B, thiopene-3-boronic acid]
Ki [1, 14]: 17 µM | Ki ([1]; read-out: Ki for AmpC): 22.1 ± 3.5 µM | Ki [2, 13]: 100 µM
